# Source: US20220040324A1, “COMBINATION OF ANTIBODY-DRUG CONJUGATE AND KINASE INHIBITOR” (DAIICHI SANKYO COMPANY, LIMITED, priority 2018, published 2022)
# Experiments:
# MDA-MB-453 cells [1] = assay: Antitumor test (9): nude mice with subcutaneously transplanted MDA-MB-453 cells; type: in vivo, human; conditions: single administration
# Description: (§1) Mouse: 5 to 6-week-old BALB/c nude mice (Charles River Laboratories Japan, Inc.) were subjected to experiment.
# (§2) Assay and calculation expression: In all of the studies, the major axis and minor axis of a tumor were measured twice a week by using an electronic digital caliper (CD15-CX, Mitutoyo Corp.), and the tumor volume (mm^3) was calculated. The calculation expression is as shown below.
# (§3) Tumor volume (mm^3)=1/2×Major axis (mm)×[Minor axis (mm)]^2
# Palbociclib was suspended in 0.5% methyl cellulose, and orally administered once a day, five times a week, at a dose of 50 mg/kg (a liquid volume of 10 mL/kg) for three weeks from Day 0.
# MDA-MB-453 cells [2] = assay: Antitumor test (10): nude mice with subcutaneously transplanted MDA-MB-453 cells; type: in vivo, human; conditions: single administration
# Description: as §1, §2, §3
# MDA-MB-453 cells, a human breast cancer cell line, obtained from ATCC were suspended in Matrigel basement membrane matrix, and 1×10^7 cells were subcutaneously transplanted to the right flank of each female nude mouse, and the mice were randomly grouped 7 days after the transplantation (Day 0). The antibody-drug conjugate (2) was diluted with ABS buffer, and intravenously administered to the tail vein of each mouse once a week at a dose of 1 mg/kg (a liquid volume of 10 mL/kg) for three weeks (Days 0, 7, 14). Alpelisib was suspended in 0.5% methyl cellulose, and orally administered once a day, five times a week, at a dose of 25 mg/kg (a liquid volume of 10 mL/kg) for three weeks from Day 0. Single administration groups and a combined administration group with the antibody-drug conjugate (2) and alpelisib, and an ABS administration group as a control group were established.
# KPL-4 cells [3] = assay: Antitumor test (7): nude mice with subcutaneously transplanted KPL-4 cells; type: in vivo, human; conditions: single administration
# Description: as §1, §2, §3
# KPL-4 cells, a human breast cancer cell line, obtained from Dr. Junichi Kurebayashi, Kawasaki Medical School (British Journal of Cancer. (1999)79 (5/6). 707-717) were suspended in physiological saline, and 1.5×10^7 cells were subcutaneously transplanted to the right flank of each female nude mouse, and the mice were randomly grouped 17 days after the transplantation (Day 0). The antibody-drug conjugate (2) was diluted with ABS buffer, and intravenously administered to the tail vein of each mouse once a week at a dose of 10 mg/kg (a liquid volume of 10 mL/kg) for three weeks (Days 0, 7, 14). Neratinib was suspended in 0.5% methyl cellulose, and orally administered once a day, five times a week, at a dose of 20 mg/kg (a liquid volume of 10 mL/kg) for two weeks. Single administration groups and a combined administration group with the antibody-drug conjugate (2) and neratinib, and an ABS administration group as a control group were established.
# NCI-N87 cells = assay: Antitumor test (6): nude mice with subcutaneously transplanted NCI-N87 cells; type: in vivo, human; conditions: single administration; tucatinib 100 mg/kg once a day, five times a week, two weeks
# Description: as §1, §2, §3
# (§4) Everolimus was suspended in 30% propylene glycol and 5% Tween 80, and orally administered at a liquid volume of 10 mL/kg. Taselisib was suspended in 0.5% methyl cellulose and 0.2% Tween 80, and orally administered at a liquid volume of 10 mL/kg. Abemaciclib was suspended in 1% hydroxyethyl cellulose and 0.1% antifoam/25 mM phosphate buffer, pH2, and orally administered at a liquid volume of 10 mL/kg.
# MDA-MB-453 cells [4] = assay: Antitumor test (5): nude mice with subcutaneously transplanted MDA-MB-453 cells; type: in vivo, human; conditions: single administration; tucatinib 100 mg/kg once a day, five times a week, three weeks
# Description: as §1, §2, §3, §4
# KPL-4 cells [5] = assay: Antitumor test (4): nude mice with subcutaneously transplanted KPL-4 cells; type: in vivo, human; conditions: single administration; tucatinib 100 mg/kg orally once a day, five times a week, two weeks
# Description: as §1, §2, §3, §4
# BxPC-3 cell line = type: cell-based, human; conditions: combined with mubritinib, 6 days culture, >0 synergistic, 0 additive, <0 antagonistic
# Description: (§5) Cell growth inhibition rate (%) was calculated by using the following calculation expression.
# (§6) T: Mean luminescence intensity of wells with specimen B: Mean luminescence intensity of wells with DMSO and medium C: Mean luminescence intensity of wells with DMSO and cells
# (§7) Sigmoid fitting with Genedata Screener Analyzer Version 14 (Genedata AG, hereinafter referred to as Screener) was performed for concentration-dependent transition of cell growth inhibition rates under each of combined use conditions.
# (§8) After culturing, a solution obtained by diluting CellTiter-Glo 2.0 Assay (Promega Corporation) with an equivalent amount of Glo Lysis buffer, 1×(Promega Corporation) was added at 2 μL/well, and incubation was performed at room temperature for 1 hour, and luminescence intensity was then measured for each well.
# KPL-4 cell line = type: cell-based, human; conditions: 6 days culture, >0 synergistic, 0 additive, <0 antagonistic
# Description: as §5, §6, §7
# EBC-1 cell line = type: cell-based, human; conditions: combined with mubritinib, 6 days culture, >0 synergistic, 0 additive, <0 antagonistic
# Description: as §5, §6, §7
# NCI-N87 cell line = type: cell-based, human; conditions: 6 days culture, >0 synergistic, 0 additive, <0 antagonistic
# Description: The human gastric cancer cell line NCI-N87 purchased from ATCC was used for evaluation. To a 1536-well cell culture plate, erlotinib (hydrochloride), poziotinib, mubritinib, brigatinib, or BIBF1120 prepared with dimethyl sulfoxide (DMSO) to concentrations of 2 mM, 400 μM, 80 μM, 16 μM, 3.2 μM, and 640 nM, or DMSO was added at 25 nL/well. […] Subsequently, NCI-N87 cells suspended with an RPMI1640 Medium containing 10% fetal bovine serum to a concentration of 4×10^4 cells/mL were seeded at 2.5 μL/well, and cultured at 37° C. under 5% CO2 for 6 days.
# as §8, §5, §6, §7
# MDA-MB-453 cells [6] = assay: Antitumor test (1): nude mice with subcutaneously transplanted MDA-MB-453 cells; type: in vivo, human; conditions: single administration, five times a week
# Description: as §1, §2, §3, §4
# Everolimus was administered once a day, five times a week, at a dose of 5 mg/kg for 3 weeks. Taselisib was administered once a day, five times a week, at a dose of 5 mg/kg for 3 weeks. Abemaciclib was administered once a day, five times a week, at a dose of 30 mg/kg for 2 weeks.
# COLO201 cells = assay: Antitumor test (3): nude mice with subcutaneously transplanted COLO201 cells; type: in vivo, human; conditions: single administration; regorafenib 10 mg/kg orally once a day, five times a week, three weeks
# Description: as §1, §2, §3, §4
# 786-0 cells = assay: Antitumor test (8): nude mice with subcutaneously transplanted 786-0 cells; type: in vivo, human; conditions: single administration
# Description: as §1, §2, §3
# Suspended in 100% Matrigel were 786-0 cells, a human kidney cancer cell line, purchased from ATCC, and 4×10^6 cells were subcutaneously transplanted to the right flank of each female nude mouse, and the mice were randomly grouped 19 days after the transplantation (Day 0). […] Cabozantinib was administered once a day, five times a week, 20 times in total, at a dose of 40 mg/kg.
# JIMT-1 cells = assay: Antitumor test (2): nude mice with subcutaneously transplanted JIMT-1 cells; type: in vivo, human; conditions: single administration; everolimus 5 mg/kg once a day, five times a week, seven times in total
# Description: as §1, §2, §3, §4
molecule,measurement,setting,value
antibody-drug conjugate (2): anti-HER3 antibody (SEQ ID NO: 3 and 4) conjugated to the drug-linker via thioether bond; DAR 7 to 8,tumor growth inhibition (TGI),"MDA-MB-453 cells [1]; antibody-drug conjugate (2) 1 mg/kg iv once a week, three weeks (Days 0, 7, 14), grouped 11 days after transplantation",54%
same,tumor growth inhibition (TGI),"MDA-MB-453 cells [2]; antibody-drug conjugate (2) 1 mg/kg iv once a week, three weeks (Days 0, 7, 14), grouped 7 days after transplantation",68%
same,tumor growth inhibition (TGI),"KPL-4 cells [3]; antibody-drug conjugate (2) 10 mg/kg iv once a week, three weeks (Days 0, 7, 14)",67%
Cc1cc(Nc2ncnc3ccc(NC4=NC(C)(C)CO4)cc23)ccc1Oc1ccn2ncnc2c1 [tucatinib],tumor growth inhibition (TGI),NCI-N87 cells,65%
same,tumor growth inhibition (TGI),MDA-MB-453 cells [4],36%
same,tumor growth inhibition (TGI),KPL-4 cells [5],78%
CC[C@@]1(O)C(=O)OCc2c1cc1n(c2=O)Cc2c-1nc1cc(F)c(C)c3c1c2[C@@H](NC(=O)CO)CC3 [Compound (1)],"Synergy Score, combination with Mubritinib",BxPC-3 cell line,−0.40
same,"Synergy Score, combination with Brigatinib",KPL-4 cell line; combined with brigatinib,−0.02
same,"Synergy Score, combination with Poziotinib",KPL-4 cell line; combined with poziotinib,−0.38
same,"Synergy Score, combination with Mubritinib",EBC-1 cell line,−0.60
same,"Synergy Score, combination with BIBF1120",NCI-N87 cell line; combined with BIBF1120 (nintedanib),−0.44
same,"Synergy Score, combination with Mubritinib",NCI-N87 cell line; combined with mubritinib,−0.45
same,"Synergy Score, combination with Poziotinib",NCI-N87 cell line; combined with poziotinib,−0.53
CCN1CCN(Cc2ccc(Nc3ncc(F)c(-c4cc(F)c5nc(C)n(C(C)C)c5c4)n3)nc2)CC1 [abemaciclib],tumor growth inhibition (TGI),"MDA-MB-453 cells [6]; abemaciclib 30 mg/kg orally once a day, 2 weeks",68%
CNC(=O)c1cc(Oc2ccc(NC(=O)Nc3ccc(Cl)c(C(F)(F)F)c3)c(F)c2)ccn1 [regorafenib],tumor growth inhibition (TGI),COLO201 cells,81%
CC(=O)c1c(C)c2cnc(Nc3ccc(N4CCNCC4)cn3)nc2n(C2CCCC2)c1=O [palbociclib],tumor growth inhibition (TGI),"MDA-MB-453 cells [1]; palbociclib 50 mg/kg orally once a day, five times a week, three weeks from Day 0",72%
Cc1nc(-c2cn3c(n2)-c2ccc(-c4cnn(C(C)(C)C(N)=O)c4)cc2OCC3)n(C(C)C)n1 [taselisib],tumor growth inhibition (TGI),"MDA-MB-453 cells [6]; taselisib 5 mg/kg orally once a day, 3 weeks",67%
COc1cc2nccc(Oc3ccc(NC(=O)C4(C(=O)Nc5ccc(F)cc5)CC4)cc3)c2cc1OC [cabozantinib],tumor growth inhibition (TGI),"786-0 cells; cabozantinib 40 mg/kg once a day, five times a week, 20 times in total",67%
CO[C@H]1C[C@@H]2CC[C@@H](C)[C@@](O)(O2)C(=O)C(=O)N2CCCC[C@H]2C(=O)O[C@H]([C@H](C)C[C@@H]2CC[C@@H](OCCO)[C@H](OC)C2)CC(=O)[C@H](C)/C=C(\C)[C@@H](O)[C@@H](OC)C(=O)[C@H](C)C[C@H](C)/C=C/C=C/C=C/1C [everolimus],tumor growth inhibition (TGI),JIMT-1 cells,52%
same,tumor growth inhibition (TGI),"MDA-MB-453 cells [6]; everolimus 5 mg/kg orally once a day, 3 weeks, BALB/c nude mice, day of effect determination",64%
CCOc1cc2ncc(C#N)c(Nc3ccc(OCc4ccccn4)c(Cl)c3)c2cc1NC(=O)/C=C/CN(C)C [neratinib],tumor growth inhibition (TGI),"KPL-4 cells [3]; neratinib 20 mg/kg orally once a day, five times a week, two weeks, day of effect determination",84%
Cc1nc(NC(=O)N2CCC[C@H]2C(N)=O)sc1-c1ccnc(C(C)(C)C(F)(F)F)c1 [alpelisib],tumor growth inhibition (TGI),"MDA-MB-453 cells [2]; alpelisib 25 mg/kg orally once a day, five times a week, three weeks from Day 0",56%
"antibody-drug conjugate (3): anti-CDH6 antibody (SEQ ID NO: 9 residues 20-471, SEQ ID NO: 10 residues 21-233) conjugated to the drug-linker via thioether bond; DAR 7 to 8 (conjugate, chains of the INN, looked up, deruxtecan-type drug-linker, DAR 7-8) VH: EVQLVQSGAEVKKPGASVKVSCKASGYTFTRNFMHWVRQAPGQGLEWMGWIYPGDGETEYAQKFQGRVTITADTSTSTAYMELSSLRSEDTAVYYCARGVYGGFAGGYFDFWGQGTLVTVSS VL: DIQMTQSPSSLSASVGDRVTITCKASQNIYKNLAWYQQKPGKAPKLLIYDANTLQTGVPSRFSGSGSGSDFTLTISSLQPEDFATYFCQQYYSGWAFGQGTKVEIK",tumor growth inhibition (TGI),786-0 cells; antibody-drug conjugate (3) 10 mg/kg iv on Day 0,71%
